As a reminder, the pIC50 is the IC50 on a negative log10 scale, so that one unit is a factor of ten.

In patent US5189058A, “Iminodicarbonic, iminodicarbonodithioic, and thiocarbonylcarbamic acid esters useful as ACAT inhibitors” (Warner-Lambert Company, priority 1991, dated 1993) one finds change in vivo and IC50 data, which are given here for 34 compounds.

Assay [1] in a line: in vivo screen designated APCC (blood cholesterol in rats on high fat, high cholesterol diet). As to conditions: Rattus norvegicus, 16 h, male Sprague-Dawley rats, 30 mg/kg in CMC/Tween at 4 PM, PCC diet (0.5% cholic acid) overnight, sacrificed 8 AM, read-out: % Change (mg/dl). The procedure: In one in vivo screen designated APCC, male Sprague-Dawley rats (200 to 225 g) were randomly divided into treatment groups and dosed at 4 PM with either vehicle (CMC/Tween) or suspensions of compounds in vehicle at a dose of 30 mg/kg. The normal chow diet was then replaced with a high fat, high cholesterol diet (designated PCC) containing 0.5% cholic acid. The rats consumed this diet ad libitum during the night and were sacrificed at 8 AM to obtain blood samples for cholesterol analysis using standard procedures. Statistical differences between mean cholesterol values for the same vehicle were determined using analysis of variance followed by Fisher's least significant test.

Assay [2] deals with T1, acyl-CoA: cholesterol acyltransferase (ACAT) (Oryctolagus cuniculus, UniProt G1SFD9).
T1 sequence (G1SFD9 1-524): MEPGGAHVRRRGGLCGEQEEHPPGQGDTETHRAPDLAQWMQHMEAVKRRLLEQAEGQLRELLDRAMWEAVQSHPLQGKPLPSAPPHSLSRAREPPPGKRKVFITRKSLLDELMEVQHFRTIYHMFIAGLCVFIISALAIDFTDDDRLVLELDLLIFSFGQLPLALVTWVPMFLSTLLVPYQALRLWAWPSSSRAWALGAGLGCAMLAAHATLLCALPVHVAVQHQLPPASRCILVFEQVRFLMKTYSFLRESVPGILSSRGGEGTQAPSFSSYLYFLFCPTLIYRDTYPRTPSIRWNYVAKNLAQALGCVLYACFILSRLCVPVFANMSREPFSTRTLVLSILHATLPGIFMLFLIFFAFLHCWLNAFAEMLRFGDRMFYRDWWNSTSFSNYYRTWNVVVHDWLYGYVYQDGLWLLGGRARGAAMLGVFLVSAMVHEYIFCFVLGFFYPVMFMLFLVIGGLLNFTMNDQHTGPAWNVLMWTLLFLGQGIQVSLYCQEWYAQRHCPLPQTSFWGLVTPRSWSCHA
Kind of assay: in vitro ACAT inhibition (radiolabeled cholesterol oleate formed from radiolabeled oleic acid, rabbit intestinal microsomes). The class given is biochemical.
Description: The ability of representative compounds of the present invention to inhibit ACAT was measured using an in vitro test more fully described in F. J. Field and R. G. Salone, Biochemica et Biophysica 712:557-570 (1982). The test assesses the ability of a test compound to inhibit the acylation of cholesterol by oleic acid by measuring the amount of radiolabeled cholesterol oleate formed from radiolabeled oleic acid in a tissue preparation containing rabbit intestinal microsomes.

The mark [3] stands for this setting: rabbit intestinal microsomes, acylation of cholesterol by oleic acid, read-out: IC50.

pIC50: −log10 of the molar value. Where two headings read alike, the source gives them in different places. Some results are limits rather than exact numbers.

In the case of `CCCCCCCCCCCCC(C)OC(=O)NC(=O)Oc1c(C(C)C)cccc1C(C)C` (racemic) [Example 3, Iminodicarbonic acid, 2,6-bis(1-methylethyl)phenyl 1-methyltridecyl ester, (±)], the change in vivo at 30 mg/kg in assay [1] is -50%.

On to `CCCCCC(C)OC(=O)NC(=O)Oc1c(C(C)C)cccc1C(C)C` (racemic) [Example 9, Iminodicarbonic acid, 2,6-bis(1-methylethyl)phenyl 1-methylhexyl ester, (± )], for which, in assay [1], the change in vivo at 30 mg/kg is -60%.

For `CC(C)c1cccc(C(C)C)c1OC(=O)NC(=O)OC(c1ccccc1)c1ccccc1` [Example 1, Iminodicarbonic acid, 2,6-bis(1-methylethyl)phenyldiphenylmethyl ester], the change in vivo at 30 mg/kg in assay [1] is -13%.

Turning to `CCCCCCCCCCCCOC(=O)NC(=O)Oc1c(C(C)C)cccc1C(C)C` [Example 2, Iminodicarbonic acid, dodecyl 2,6-bis(1-methylethyl)phenyl ester], the change in vivo at 30 mg/kg in assay [1] was -52%.

For `CCCCCCCCCCCCC(C)(C)OC(=O)NC(=O)Oc1c(C(C)C)cccc1C(C)C` [Example 4, Iminodicarbonic acid, 2,6-bis(1-methylethyl)phenyl 1,1-dimethyltridecyl ester], the change in vivo at 30 mg/kg in assay [1] is -51%.

Regarding `CCCCC(C)(C)OC(=O)NC(=O)Oc1c(C(C)C)cccc1C(C)C` [Example 5, Iminodicarbonic acid, 2,6-bis(1-methylethyl)phenyl 1,1-dimethylpentyl ester], the change in vivo at 30 mg/kg in assay [1] is -29%.

Consider `CCCCCCOC(=O)NC(=O)Oc1c(C(C)C)cccc1C(C)C` [Example 6, Iminodicarbonic acid, 2,6-bis(1-methylethyl)phenyl hexyl ester], for which the change in vivo at 30 mg/kg in assay [1] was -38%. In assay [2] (setting [3]), the pIC50 was 7.03.

For the compound `CCCCC[C@H](C)OC(=O)NC(=O)Oc1c(C(C)C)cccc1C(C)C` [Example 7, Iminodicarbonic acid, 2,6-bis(1-methylethyl)phenyl 1-methylhexyl ester (S)], the change in vivo at 30 mg/kg in assay [1] is -25%.

Consider `CCCCC[C@@H](C)OC(=O)NC(=O)Oc1c(C(C)C)cccc1C(C)C` [Example 8, Iminodicarbonic acid, 2,6-bis(1-methylethyl)phenyl 1-methylhexyl ester (R)], for which, in assay [1], the change in vivo at 30 mg/kg is -49%.

For the compound `CCCCCCCCCCCCCCCCOC(=O)NC(=O)Oc1c(C(C)C)cccc1C(C)C` [Example 10, Iminodicarbonic acid, 2,6-bis(1-methylethyl)phenyl hexadecyl ester], in assay [1], the change in vivo at 30 mg/kg was -70%. Moreover, the pIC50 in assay [2] (setting [3]) was 7.30.

In the case of `CCCCCCCCCCCOC(=O)NC(=O)Oc1c(C(C)C)cccc1C(C)C` [Example 11, Iminodicarbonic acid, 2,6-bis(1-methylethyl)phenyl undecyl ester], the change in vivo at 30 mg/kg in assay [1] is -65%.

As for `CCCCCCCCCCCCCCCCCCOC(=O)NC(=O)Oc1c(C(C)C)cccc1C(C)C` [Example 12, Iminodicarbonic acid, 2,6-bis(1-methylethyl)phenyl octadecyl ester], the change in vivo at 30 mg/kg in assay [1] is -34%. For the same compound, the pIC50 in assay [2] (setting [3]) is 5.92.

As to `CCCCCCCC(C)OC(=O)NC(=O)Oc1c(C(C)C)cccc1C(C)C` (stereo not drawn) [Example 13], the change in vivo at 30 mg/kg in assay [1] was -56%.

For the compound `CCCCCCCCC(C)OC(=O)NC(=O)Oc1c(C(C)C)cccc1C(C)C` (stereo not drawn) [Example 14, Iminodicarbonic acid, 2,6-bis(1-methylethyl)phenyl 1-methylnonyl ester], the change in vivo at 30 mg/kg in assay [1] was -54%.

As for `CCCCCCCCCCC(C)OC(=O)NC(=O)Oc1c(C(C)C)cccc1C(C)C` (stereo not drawn) [Example 15, Iminodicarbonic acid, 2,6-bis(1-methylethyl)phenyl 1-methylundecyl ester], the change in vivo at 30 mg/kg in assay [1] was -66%.

As for `CCCCCCCCOC(=O)NC(=O)Oc1c(C(C)C)cccc1C(C)C` [Example 16, Iminodicarbonic acid, 2,6-bis(1-methylethyl)phenyl octyl ester], the change in vivo at 30 mg/kg in assay [1] was -47%.

With `CCCCCCCCCCOC(=O)NC(=O)Oc1c(C(C)C)cccc1C(C)C` [Example 17, Iminodicarbonic acid, 2,6-bis(1-methylethyl)phenyl decyl ester], in assay [1], the change in vivo at 30 mg/kg is -43%.

For the compound `CCCCCCCCCCCCSC(=O)NC(=O)Oc1c(C(C)C)cccc1C(C)C` [Example 18, [(Dodecylthio)carbonyl] -carbamic acid, 2,6-bis(1-methylethyl)phenyl ester], the change in vivo at 30 mg/kg in assay [1] is -63%. The pIC50 in assay [2] (setting [3]) is 7.55.

With `CC(C)c1cccc(C(C)C)c1OC(=O)NC(=O)Sc1c(C(C)C)cccc1C(C)C` [Example 19, 2,6-Bis[[(1-methylethyl)phenyl]thio]carbamic acid, 2,6-bis(1-methylethyl)phenyl ester], the change in vivo at 30 mg/kg in assay [1] was -20%.

Consider `CCCCCCCCCCSC(=O)NC(=O)Oc1c(C(C)C)cccc1C(C)C` [Example 20, [(Decylthio)carbonyl]carbamic acid, 2,6-bis(1-methylethyl)phenyl ester], for which, in assay [1], the change in vivo at 30 mg/kg was -52%.

As to `CC(C)c1cccc(C(C)C)c1OC(=O)NC(=O)Oc1c(C(C)C)cccc1C(C)C` [Example 24, Iminodicarbonic acid, di[2,6-bis(1-methylethyl)phenyl]ester], in assay [1], the change in vivo at 30 mg/kg is -43%.

With `COC(=O)C(OC(=O)NC(=O)Oc1c(C(C)C)cccc1C(C)C)c1ccccc1` (stereo not drawn) [Example 25, α-[[[[[2,6-Bis(1-methylethyl)phenoxy]carbonyl]amino]carbonyl]oxy]benzeneacetic acid, methyl ester], the change in vivo at 30 mg/kg in assay [1] is -12%.

In the case of `CC(C)c1cccc(C(C)C)c1OC(=O)NC(=O)Oc1cccc2ccccc12` [Example 26, Iminodicarbonic acid, [2,6-bis(1-methylethyl)phenyl](1-naphthalenyl) ester], the change in vivo at 30 mg/kg in assay [1] was -11%. Besides, the pIC50 in assay [2] (setting [3]) was 5.92.

As for `CC(C)c1cccc(C(C)C)c1OC(=O)NC(=O)Oc1ccccc1` [Example 27, Iminodicarbonic acid, 2,6-bis(1-methylethyl)phenyl phenyl ester], the negative logarithm of the IC50 (pIC50) in assay [2] (setting [3]) was 5.43.

Turning to `CC(C)c1cccc(C(C)C)c1OC(=O)NC(=O)Sc1ccccc1` [Example 28], in assay [1], the change in vivo at 30 mg/kg is -19%. Besides, the pIC50 in assay [2] (setting [3]) was 5.74.

As for `CCCCCCCCCCCCOC(=O)NC(=O)Oc1c(OC)cc(OC)cc1OC` [Example 29, Iminodicarbonic acid, dodecyl 2,4,6-trimethoxyphenyl ester], in assay [2] (setting [3]), the pIC50 was < 5.30.

On to `CCCCCCCCCCCCC(C)OC(=O)NC(=O)Oc1ccc(F)cc1F` (stereo not drawn) [Example 30, Iminodicarbonic acid, 2,4-difluorophenyl 1-methyltridecyl ester], for which the change in vivo at 30 mg/kg in assay [1] was -15%. Further, the pIC50 in assay [2] (setting [3]) is < 5.30.

Turning to `CCCCCCCCCCCCSC(=O)NC(=O)Sc1c(C(C)C)cccc1C(C)C` [Example 31, Iminodicarbonodithioic acid, 5-[2,6-bis(1-methylethyl)phenyl] S'-dodecyl ester], the change in vivo at 30 mg/kg in assay [1] is -35%. Moreover, in assay [2] (setting [3]), the negative-log IC50 (pIC50) is < 6.00.

With `O=C(NC(=O)Oc1c(-c2ccccc2)cccc1-c1ccccc1)Oc1c(-c2ccccc2)cccc1-c1ccccc1` [Example 32, Iminodicarbonic acid, di[1,1'[3',1"-terphenyl]-2-yl]ester], in assay [1], the change in vivo at 30 mg/kg is -36%. The pIC50 in assay [2] (setting [3]) is 4.98.

`Cc1cccc(C)c1SC(=O)NC(=O)Sc1c(C)cccc1C` [Example 33, Iminodicarbonodithioic acid, S,S'-bis[2,6-bis(methyl)phenyl]ester]: the change in vivo at 30 mg/kg in assay [1] is -33%. Besides, the pIC50 in assay [2] (setting [3]) was 6.64.

Take `CCCCCCCCCCCCOC(=O)NC(=O)Sc1c(C(C)C)cccc1C(C)C` [Example 34, [[[2,6-Bis(1-methylethyl)phenyl]thio]carbonyl]carbamic acid, dodecyl ester]: the negative logarithm of the IC50 (pIC50) in assay [2] (setting [3]) is < 5.30.

Consider `CC(C)(C)c1cccc(C(C)(C)C)c1OC(=O)NC(=O)Oc1c(C(C)(C)C)cccc1C(C)(C)C` [Example 35, Iminodicarbonic acid bis[2,6-bis(1,1-dimethylethyl)phenyl]ester], for which the change in vivo at 30 mg/kg in assay [1] was -4%.

Turning to `O=C(NC(=O)OC(c1ccccc1)c1ccccc1)OC(c1ccccc1)c1ccccc1` [Example 36, Iminodicarbonic acid, di(diphenylmethyl)ester], the pIC50 in assay [2] (setting [3]) is < 5.30.

With `CCCCCCCCCCCCC(C)OC(=O)N(C)C(=O)Oc1c(C(C)C)cccc1C(C)C` (stereo not drawn) [Example 37, Methyliminodicarbonic, 2,6-bis(1-methylethyl)phenyl 1-methyltridecyl ester], the change in vivo at 30 mg/kg in assay [1] was -8%. Besides, in assay [2], the pIC50 is 6.22.
